# Source: patent publication US20040006070A1, “Intraspinal continuous infusion of midazolam hydrochloride for the treatment of pain” (priority 2002, published 2004)
# Values joined by “and” are separate entries in the source; they are usually repeats but may differ in a detail not shown here. Equal entries are not always repeated. “Also recorded” adds a separate entry of the source. Structures can show the parent of a compound that is named as a salt.
# Tests used:
# [1] = rat, single or multiple intrathecal bolus doses for 20 days; cited from earlier work
# [2] = Toxicity in neuropathic pain sheep: clinical signs, necropsy, histopathology; format: in vivo
# From the text: Animals will be observed daily for any signs of clinical toxicity such as limping and loss of appetite. At necropsy the spinal cord will be examined for any gross changes. Histopathologic evaluation will be performed on all animals after drug studies are complete. These examinations will detect any neurotoxicity that may be present due to the spinal infusion of midazolam.
# [3] = Toxicity testing of midazolam in the pig model, closed label (swine data); format: in vivo
# Protocol: Another closed label study was performed in pigs. This study was performed in response to implications of possible species-related toxicity reported by researchers in Turkey and France (Malinovsky et al., 1991; Svensson et al., 1995; Erdine et al, 1999). […] Rats were administered single or multiple bolus doses for 20 days. Rabbits were administered bolus injections of 0.1% midazolam (pH 3.3) in 0.3 ml or preservative-free midazolam (pH 3.5) in 0.3 ml for one day or five consecutive days. To further assess the safety of spinally administered midazolam by continuous infusion in a second species, three pigs were instrumented with Medtronic SynchroMed® intrathecal infusion systems. Pigs were administered 15 mg/day (N=2), or saline control (N=1).
# [4] = system: neuropathic pain model in the sheep; test: Neuropathic pain model in sheep, behavior monitoring (Observer 3.0) with visual analog pain score; format: in vivo; details: for average pain score: sheep #980 Dudley
# From the text: The neuropathic pain model in the sheep is created by placing four tight ligatures around the median, radial, or ulnar nerve (or a combination thereof) with 0-chromic gut suture. This method produces a chronic painful peripheral mononeuropathy which may be related to those conditions seen in humans with causalgia and reflex sympathetic dystrophy.
# To evaluate animal behavior, the Observer 3.0 software (Noldus Information Technology, The Netherlands) was used to aid docmentation of a daily record of multiple traits. […] The behavior was then interpreted into a visual analog pain score (VAS), where 0 represents no pain and 100 represents severe pain.
# Approximately three days prior to surgery each sheep will undergo a 15-minute baseline behavior evaluation. The observations made in this evaluation include, a computerized behavior software recording (the Observer) for 15minutes—gait monitoring—and recording of pain perception via visual analog scale-using the Observer. In some animals, recording of vital signs (blood pressure, heart rate, respirations per minute) will be performed using the Observer. Baseline values for pain perception are recorded via the mechanical stimulus device and/or behavior monitoring will also be performed at this time.
# The sheep will be observed daily postoperatively. […] Observations of neuropathic pain development include changes in ambulation, alertness, appetite, urination, defecation, herding activity, body temperature and pain behaviors. This daily behavior is recorded utilizing the observer (an observational software system).
# [5] = 1-5 mg/day, prior art; cited from earlier work
# [6] = system: neuropathic pain model in the sheep; test: Neuropathic pain model in sheep, mechanical stimulus device; format: in vivo; details: for Mechanical Stimulus device: sheep Rowdy #819
# From the text: The neuropathic pain model in the sheep is created by placing four tight ligatures around the median, radial, or ulnar nerve (or a combination thereof) with 0-chromic gut suture. This method produces a chronic painful peripheral mononeuropathy which may be related to those conditions seen in humans with causalgia and reflex sympathetic dystrophy. To date, the onset of neuropathic pain has occurred 1 to 9 days postoperatively, as evidenced by the display of painful behavior such as hyperalgesia, not bearing weight or holding the operated leg off the ground. The duration of the painful behavior lasted 16 to 62 days. […] It has been difficult to identify a segment of the median nerve that is consistently appropriate to achieve the neuropathic pain behavior. The inventors are continuing to test different segments of the median nerve and other mixed sensory/motor nerves to consistently produce this behavior. Of the five animals that developed neuropathic pain, three were treated with intrathecal morphine or midazolam as single agents.
# In the sheep with neuropathic pain treated by midazolam alone, intrathecal administration of midazolam was initiated at 3 to 5 mg/day and the dose was escalated to up to 15 mg/day. […] This analgesia was documented using a mechanical stimulus device and/or behavior monitoring. The mechanical stimulus device measures pressure applied to a blunt pin against the foreleg. The pressure at which the animal lifts its leg in response to the painful stimulus is documented. In the sheep monitored by this device, administration of intrathecal midazolam allowed endurance of up to 18 Newtons of pressure (cut off to prevent tissue damage was set at 19.99 N) compared to the baseline (pretreatment) pressure endured of 9.59 N.
# A mechanical stimulus device as described in Example 6, and/or behavior monitoring as described in Example 5 is used to test analgesic effect in the neuropathic pain model. To compare the effects of midazolam using the mechanical stimulus device, the data were accumulated over the testing period, and all response latencies were expressed as percentage of the maximum possible effect (MPE) where: [formula]
# This test will be conducted prior to initiation of midazolam infusion and again on days 1, 3, 7, 15, 22, 29, 36, 43 during infusion. The mechanical stimulus device has been developed and validated (Nolan et al. 1987; Kyles et al., 1995) for pain testing in the sheep model.
# [7] = CSF, individual pigs, 15 mg, hydrochloride
# [8] = individual pigs, Drug Dose 15 mg, hydrochloride
# [9] = pigs, 15 mg/day continuous intrathecal infusion (N=2)
# [10] = sheep Rowdy #819, 5 mg, daily values, hydrochloride, on May 29, 2001
# [11] = sheep Rowdy #819, 5 mg, daily values, hydrochloride, on May 30, 2001
structure (smiles),measurement,setting,value
"Cc1ncc2n1-c1ccc(Cl)cc1C(c1ccccc1F)=NC2 [Midazolam, midazolam hydrochloride]",neurotoxicity,[1],neurotoxicity
same,tolerability,[2]; intrathecal up to 5 mg/day,tolerated well
same,"necropsy, spinal cord lesions",[2]; sheep #980 Dudley,did not exhibit any spinal cord lesions
same,Routine Cultures Post Mortum,"[3]; CSF, individual pigs, 15 mg, cell wraps 'No' / 'Growth'",No
same,Glucose Post Mortum,[3]; [7],11 mg/dL and 31 mg/dL
same,Gross Exam Post Mortum,[3]; [7],Colorless; also recorded: cloudy; also recorded: clear
same,RBC Count Post Mortum,[3]; [7],"1,350 /ul and 0 /ul"
same,Total Protein Post Mortum,[3]; [7],73 mg/dL and 39 mg/dL
same,WBC Count Post Mortum,[3]; [7],888 µL⁻¹ and 117 µL⁻¹
same,clinical symptoms,"[3]; individual pigs, Drug Dose 15 mg",none
same,Final Weight,[3]; [8],147 and 170
same,Histopathological Changes,[3]; [8],Most foreign body reaction in all the pigs; also recorded: The least foreign body reaction in all the pigs. The spinal reaction
same,clinical or gross changes at necropsy,[3]; [9],No clinical or gross changes at necropsy were observed
same,"histology, toxicity related to the infusion",[3]; [9],no evidence of toxicity related to the midazolam infusion
same,"VAS score (0 no pain, 100 severe pain)","[4]; average on most days, intrathecal 3 to 6 mg/day, saline pretreatment 60 to 95",approximately 30
same,"VAS score, average","[4]; first sheep (Rowdy), 5 mg/day",30%
same,analgesia at higher doses,"[4]; first sheep (Rowdy), after dose escalation to 15 mg/day",less analgesia
same,analgesic activity against neuropathic pain,[4]; intrathecal up to 5 mg/day,had analgesic activity against neuropathic pain
same,average pain score,[4]; 3 mg/day for 13 days,32%
same,average pain score,"[4]; 6 mg/day, remainder of the study",35%
same,average pain score,[4]; reinstituted 3 mg/day escalated to 5 mg/day over 7 days,65%
same,Other behavior: Observe operated leg,"[4]; sheep Rowdy #819, 5 mg",0.56%
same,Eating,[4]; [10],69.88%
same,Holding operated leg off the ground,[4]; [10],5.77%
same,Holding unoperated leg off the ground,[4]; [10],0.90%
same,Walking,[4]; [10],5.07%
same,Eating,[4]; [11],83.94%
same,Holding operated leg off the ground,[4]; [11],6.24%
same,Holding unoperated leg off the ground,[4]; [11],0.56%
same,Walking,[4]; [11],4.22%
same,Other behavior: Eating lying down,"[4]; sheep Rowdy #819, 10 mg",0.29%
same,Eating,"[4]; sheep Rowdy #819, 15 mg",3.29%
same,Holding operated leg off the ground,"[4]; sheep Rowdy #819, 15 mg",8.55%
same,Holding unoperated leg off the ground,"[4]; sheep Rowdy #819, 15 mg",0.81%
same,Other behavior: Bleating,"[4]; sheep Rowdy #819, 15 mg",0.86%
same,Other behavior: Pulling wool,"[4]; sheep Rowdy #819, 15 mg",1.11%
same,Other behavior: Standing ruminating,"[4]; sheep Rowdy #819, 15 mg",70.19%
same,Pain Score,"[4]; sheep Rowdy #819, 15 mg",40
same,Standing,"[4]; sheep Rowdy #819, 15 mg",13.79%
same,Walking,"[4]; sheep Rowdy #819, 15 mg",1.40%
same,toxicities reported,[5],Sedation and somnolence
same,pressure endured (mechanical stimulus device),"[6]; Sheep #819, cut off 19.99 N, baseline (pretreatment) 9.59 N",up to 18 Newtons
same,analgesia,"[6]; neuropathic pain sheep, midazolam alone, 3 to 5 mg/day escalated up to 15 mg/day intrathecal",significant analgesia
same,Mechanical Stimulus device,[6]; 10 mg,13.7N
same,Mechanical Stimulus device,[6]; 15 mg,7.0N
